A value given as a limit tells only on which side of the number the result lay.

From paper PMC12427763 (2025) come the findings set out here.

For assay [1], the system named is c-myb IM (5'-FAM) (DNA, i motif) TCCTCCTCCTCCTTCTCCTCCTCCTCCGTGACCTCCTCCTCC
In words: MST. Conditions: K+ 100 mM, 20 mM MES pH 5.5.

Assay [2] concerns 5'-biotin c-myb IM (DNA, i motif) TCCTCCTCCTCCTTCTCCTCCTCCTCCGTGACCTCCTCCTCC
In words: SPR. Conditions: K+ 100 mM; 20 mM MES pH 5.5, 5% DMSO.

The test system of assay [3] is 5'-biotin c-myb G4 (DNA, G4) GGAGGAGGAGGTCACGGAGGAGGAGGAGAAGGAGGAGGAGGA
In words: SPR. Conditions: K+ 100 mM; 50 mM Tris-HCl pH 7.4, 5% DMSO.

The test system of assay [4] is c-myb G4 (5'-FAM) (DNA, G4) GGAGGAGGAGGTCACGGAGGAGGAGGAGAAGGAGGAGGAGGA
In words: MST. Conditions: K+ 100 mM; 50 mM Tris-HCl pH 7.4.

Assay [5] concerns Bcl-2 G4 (DNA, G4) GGGCGGGCGCGGGAGGAAGGGGGCGGG
The assay is described as follows: SPR. Conditions: K+ 100 mM; 50 mM Tris-HCl pH 7.4, 5% DMSO.

In assay [6] the test system is Kras G4 (5'-FAM) (DNA, G4) AGGGCGGTGTGGGAAGAGGGAAGAGGGGGAGG
The assay is described as follows: MST. Conditions: K+ 100 mM; 50 mM Tris-HCl pH 7.4.

Assay [7] has as its system Ret IM (5'-FAM) (DNA, i motif) CCCCGCCCCGCCCCGCCCCTA
In words: MST. Conditions: K+ 100 mM; 20 mM MES pH 5.5.

Assay [8] relates to Kras IM (5'-FAM) (DNA, i motif) CCTCCCCCTCTTCCCTCTTCCCACACCGCCCT
In words: MST. Conditions: K+ 100 mM; 20 mM MES pH 5.5.

The subject of assay [9] is c-myb IM (DNA, i motif) TCCTCCTCCTCCTTCTCCTCCTCCTCCGTGACCTCCTCCTCC
In words: TO displacement, fluorescence. Conditions: K+ 100 mM plus potassium phosphate; BPES pH 5.5, 1 mM EDTA; tracer thiazole orange 2 μM.

Assay [10] relates to c-Jun IM (5'-FAM) (DNA, i motif) TAACCCCCTCCCCCTCCCCCCTTTAAT
The assay is described as follows: MST. Conditions: K+ 100 mM; 20 mM MES pH 5.5.

Assay [11] has as its system c-myb G4 (DNA, G4) GGAGGAGGAGGTCACGGAGGAGGAGGAGAAGGAGGAGGAGGA
In words: TO displacement, fluorescence. Conditions: K+ 100 mM; 50 mM Tris-HCl pH 7.4; tracer thiazole orange 2 μM.

In assay [12] the test system is Kras G4 (DNA, G4) AGGGCGGTGTGGGAAGAGGGAAGAGGGGGAGG
In words: SPR. Conditions: K+ 100 mM; 50 mM Tris-HCl pH 7.4, 5% DMSO.

Assay [13] relates to c-Jun IM (DNA, i motif) TAACCCCCTCCCCCTCCCCCCTTTAAT
The assay is described as follows: SPR. Conditions: K+ 100 mM; 20 mM MES pH 5.5, 5% DMSO.

In assay [14] the test system is Rb IM (DNA, i motif) GCCGCCCAAAACCCCCCG
The assay is described as follows: SPR. Conditions: K+ 100 mM; 20 mM MES pH 5.5, 5% DMSO.

The subject of assay [15] is Hras G4 (DNA, G4) TTGAGGGTGGGTAGGGTGGGTAAA
In words: SPR. Conditions: K+ 100 mM; 50 mM Tris-HCl pH 7.4, 5% DMSO.

Assay [16] has as its system c-Jun G4 (5'-FAM) (DNA, G4) AAGGGGGGAGGGGGAGGGGGTT
The assay is described as follows: MST. Conditions: K+ 100 mM; 50 mM Tris-HCl pH 7.4.

In assay [17] the test system is HIF-1α IM (5'-FAM) (DNA, i motif) GCCCGAGCGCGCCTCCGCCCTTGCCCGCCCCCTG
In words: MST. Conditions: K+ 100 mM; 20 mM MES pH 5.5.

The test system of assay [18] is Bcl-2 IM (DNA, i motif) CAGCCCCGCTCCCGCCCCCTTCCTCCCGCGCCCGCCCCT
The assay is described as follows: SPR. Conditions: K+ 100 mM; 20 mM MES pH 5.5, 5% DMSO.

In assay [19] the test system is Ret IM (DNA, i motif) CCCCGCCCCGCCCCGCCCCTA
In words: SPR. Conditions: K+ 100 mM; 20 mM MES pH 5.5, 5% DMSO.

Assay [20] has as its system Rb IM (5'-FAM) (DNA, i motif) GCCGCCCAAAACCCCCCG
In words: MST. Conditions: K+ 100 mM; 20 mM MES pH 5.5.

In assay [21] the test system is c-Jun G4 (DNA, G4) AAGGGGGGAGGGGGAGGGGGTT
In words: SPR. Conditions: K+ 100 mM; 50 mM Tris-HCl pH 7.4, 5% DMSO.

By KD is commonly meant a measure of binding affinity in units of concentration. Turning to `O=C1c2cccc3c(-n4cc(-c5ccc6c(c5)c5ccccc5n6CCN5CCCC5)nn4)ccc(c23)C(=O)N1CCN1CCCC1`, the equilibrium dissociation constant (KD) in assay [1] was 2.11 ± 0.71 µM; in assay [2], 3.34 µM; in assay [3], 5.15 µM; in [4], 8.53 ± 3.22 µM.

Turning to `O=C1c2cccc3cc(-c4ccc5c(c4)c4cc(-c6cn(CCN7CCCC7)nn6)ccc4n5CCN4CCCC4)cc(c23)C(=O)N1CCN1CCCC1`, the KD in [5] is 23.60 µM; in assay [6], 19.90 µM; in [1], 1.04 ± 0.40 µM; in assay [7] it was 18.00 µM; in assay [8], 20.59 µM; in assay [2], 0.58 µM. Also, the KD in assay [10] amounted to 34.42 µM; in [3], 1.10 µM; in assay [12], 27.50 µM; in assay [13] it was 18.70 µM; in [14], 7.70 µM; in [15], 29.10 µM. The KD was more than 50 µM in [16]; 1.43 ± 0.64 µM in [4]; 14.19 µM in [17]; 18.50 µM in assay [18]; 7.71 µM in assay [19]; 20.93 µM in [20]. In addition, the dissociation constant KD in [21] is 32.90 µM. Besides, the DC50 in [9] turned out to be 0.8 µM; in assay [11], 1.0 µM.

In the case of `O=C1c2cccc3cc(-c4ccc5c(c4)c4ccccc4n5CCN4CCCC4)cc(c23)C(=O)N1CCN1CCCC1`, the dissociation constant KD stood at 10.06 ± 2.67 µM in [1] (supplement prints 10.39 ± 2.67), 12.90 µM in assay [2], 3.03 µM in [3] and 1.11 ± 0.52 µM in assay [4].
